Values after ≈ are worked out from the molar mass of the structure shown.
Assays:
[1] = Solubilization of quercetin, quercitrin and rutin by heat in water, grape anthocyanin and malvin chloride solutions (Example 6); type: physicochemical; conditions: thermodynamic from solid
Protocol: Quercetin is a flavonol aglycone. In fruit juices it exists as the glycoside. The purpose of the investigation was to examine the solubilization of glycosides of flavonols by anthocyanins. […] Samples were diluted in water 1:9 before reading. Aliquots of anthocyanin and water with and without the flavonol were treated similarly.
The same procedure was used for measuring the solubility of the flavonols in malvin chloride. In this case 1.8 mg malvin chloride was dissolved in 2.0 ml citrate buffer at pH3. To 1 ml was added 2 mg of the flavonol, the other 1 ml acted as a control. After heating, the mixture was cooled to room temperature, centrifuged, and the supernatant diluted 1:9 with 50% aqueous ethanol. The optical densities were measured at 375 nm.

[2] = Solubilization of quercetin in aqueous malvin chloride by addition of ethanol solution of quercetin (Example 5); type: physicochemical
Protocol: The anthocyanins can be divided into two major classes: the monomeric anthocyanins and the polymeric anthocyanins. A typical example of a monomeric anthocyanin is malvin chloride, a salt of the oxonium ion malvidin-3-glucose and the chloride ion. It can be obtained in a high state of purity (Indofine Inc, USA) and therefore used to determine the solubilizing effect of an anthocyanin monomer. The procedure was as follows: malvin chloride (2.2 mg) was dissolved in 2 ml citrate buffer (pH 3.0)—one ml acted as a control. […] Equal amounts of ethanol were added to the control. Each solution was diluted (1:9) with 5% aqueous ethanol and the optical density determined at 275 nm.

physchem = type: physicochemical; conditions: 20 °C, aqueous with cosolvent or surfactant or cyclodextrin, kinetic from dmso stock
Protocol: The procedure used was as follows: anthocyanin powder was dissolved in deionised water to give concentrations of 0.625, 1.25, 2.5, 10 and 20 mg/ml. […] The mixtures were allowed to stand for 20 to 30 min and then centrifuged at 2000×g for 30 min at 20° C. The optical densities were measured at 258 nm and 375 nm as in Example 1. To 5 ml of each corresponding anthocyanin solution was added the same volume of ethanol determined above to give a precipitate, and the optical densities measured. […] The control was water.
Since quercitin is more soluble in aqueous ethanol than water a further series of controls were prepared in which quercetin in ethanol was added to water in amounts corresponding to those used in the test, and the solubilities likewise determined. […] To solubilize quercetin more anthocyanin was needed than quercetin w/w.

[3] = ileostomy subjects (Hollman et al 1995); cited from earlier work
[4] = Solubility of solid quercetin in liquids after heating to boiling in microwave oven (Example 3); type: physicochemical; conditions: 20 °C, thermodynamic from solid
Protocol: To investigate dissolution by heat, the liquids were heated in a sealed tube for 1 min in a microwave oven (when boiling of the liquid occurred) and cooled to room temperature.

[5] = Solubility of solid quercetin mixed with liquids at room temperature (Example 3); type: physicochemical; conditions: 20 °C, thermodynamic from solid, Room temp
[6] = aqueous with cosolvent or surfactant or cyclodextrin
[7] = pH 3, aqueous with cosolvent or surfactant or cyclodextrin

Compound | solubility at 1 min [1, 6] [µg/mL] | solubility at 1 min [1, 7] [µg/mL] | solubility at 1 min ([1]; water) [µg/mL] | solubility ([2]; 20% v/v ethanol, aqueous with cosolvent or surfactant or cyclodextrin, ethanol 20% v/v, without malvin chloride) [µg/mL] | Solubility of quercetin in presence of malvin chloride ([2]; citrate buffer pH 3.0, 20% v/v ethanol, possibly super saturated) | quercetin added to 1 ml malvin chloride with no precipitate ([2]; malvin chloride 1.1 mg/ml in citrate buffer pH 3.0, quercetin added in ethanol, slight precipitate at 1000 μg) [µg] | solubility (physchem) [µg/mL] | solubility (physchem; Solubility of quercetin, 20 mg grape anthocyanin powder/ml, in a 22% ethanol solution) [µg/mL] | absorption [3] [%] | solubility at 1 min ([4]; aqueous with cosolvent or surfactant or cyclodextrin, Boiling, Rosé D'Anjou (F)) [µg/mL] | solubility at 1 min ([4]; water, Solubility of quercetin) [µg/mL] | solubility at 3 h ([5]; aqueous with cosolvent or surfactant or cyclodextrin, Ethanol 12% v/v) [µg/mL] | solubility at 3 h ([5]; aqueous with cosolvent or surfactant or cyclodextrin, Red wine Cabernet-Sauvignon (F)) [µg/mL] | solubility at 3 h ([5]; aqueous with cosolvent or surfactant or cyclodextrin, grape Anthocyanin powder 1 g/L in water) [µg/mL] | solubility at 3 h ([5]; Water, OD 375 nm) [µg/mL]
C[C@@H]1O[C@@H](Oc2c(-c3ccc(O)c(O)c3)oc3cc(O)cc(O)c3c2=O)[C@H](O)[C@H](O)[C@H]1O [Quercitrin, quercetin 3-L-rhamnoside] | 316 (≈ 705 µM) | 127 (≈ 283 µM) | 53 (≈ 118 µM) |  |  |  |  |  |  |  |  |  |  |  | 
C[C@@H]1O[C@@H](OC[C@H]2O[C@@H](Oc3c(-c4ccc(O)c(O)c4)oc4cc(O)cc(O)c4c3=O)[C@H](O)[C@@H](O)[C@@H]2O)[C@H](O)[C@H](O)[C@H]1O [Rutin, quercetin 3β-D-rutinoside hydrate] | 260 | 74 | 36 |  |  |  |  |  |  |  |  |  |  |  | 
O=c1c(O)c(-c2ccc(O)c(O)c2)oc2cc(O)cc(O)c12 [quercetin] | 90 (≈ 298 µM) | 28 (≈ 92.6 µM) | 2 (≈ 6.62 µM) | 13 (≈ 43 µM) | extremely soluble | 750 | 13 (≈ 43 µM) | 75 (≈ 248 µM) | 25 | 9 (≈ 29.8 µM) | 2 (≈ 6.62 µM) | 1 (≈ 3.31 µM) | 3 (≈ 9.93 µM) | 0.7 (≈ 2.32 µM) | 0.3 (≈ 0.993 µM)
